# A melting point compilation (Tetko et al.; mined from patent text by program, amines drawn as free bases though some values may be those of a salt)
row,SMILES,melting point
1,O=C(O)CCSC1c2ccccc2COc2ccc(OCc3ccc4cc(F)ccc4n3)cc21 (stereo not given),167 to 171 °C
2,OC1CCc2c(-c3ccccc3)cccc21 (stereo not given),80.5 to 81.5 °C
3,COc1cc2c(cc1Nc1ncc(Cl)c(Nc3ccc(N4CCOCC4)cc3OC)n1)CCN(CC(=O)N1CCCC1)CC2,82 to 105 °C
4,CC(C)=CC(=O)NCC1Cc2ccc(-c3ccc(=O)[nH]n3)cc2C1 (stereo not given),204 to 205 °C
5,C=Cc1ccc(-c2ccc3c4ccc5c6c(ccc(c7cccc2c73)c64)C(=O)N(c2c(C(C)C)cccc2C(C)C)C5=O)cc1,> 300 °C
6,O=c1ccc(-c2ccc(OCCCCl)cc2)n[nH]1,191 to 193 °C
7,CCNC(=O)Nc1nc2cc(-c3cnc(OC)nc3)ccn2n1,243 to 248 °C
8,O=C(Oc1ccc2c(c1)OC=C(C(=O)N1CCN(C(c3ccc(F)cc3)c3ccc(F)cc3)CC1)O2)c1cccnc1,142 °C
9,Cc1ccc2nc(NC(=O)c3ccc(C(C)(C)C)cc3)cn2c1,259 to 260 °C
10,O=C(Nc1ccccc1O)C(=O)Nc1ccccc1O,> 250 °C
11,COc1cc(C(=O)C#CC(=O)O)cc(OC)c1OC,130 to 132 °C
12,CC1Oc2cc(F)ccc2NC1=O (stereo not given),166 to 168 °C
13,Cn1nc(N)nc1NCCCOc1cccc(CN2CCCC2)c1,95 to 95.5 °C
14,CC(C)(O)c1ccc(CNC(=O)c2cccnc2Oc2ccc3ncsc3c2)cc1,195 to 197 °C
15,CCOC(=O)COC(=O)c1cc(S(N)(=O)=O)c(Cl)cc1NCc1ccco1,46 °C
16,O=C1c2ccccc2-c2ccccc2C1(O)C(F)(F)F (stereo not given),148 to 151 °C
17,CCCC(C)Oc1ccc(C(=O)O)cc1 (stereo not given),67 to 68.8 °C
18,CS(=O)(=O)Nc1cc2occ(-c3cscn3)c(=O)c2cc1Oc1ccccc1,> 250 °C
19,CC(=O)NC[C@H]1CN(c2ccc(C(=O)c3cnc4ccc(F)cn34)cc2)C(=O)O1,224 to 226 °C
20,CCc1cc(NCc2ccc(-c3ccccc3C#N)cc2)n2ccnc2n1,99 to 100 °C
21,CCOCc1nc2ncc(C)nc2c(=O)[nH]1,181 to 183 °C
22,CC(=O)NC[C@H]1CN(c2ccc(-c3ccncc3)c(F)c2)C(=O)O1,179 to 180 °C
23,Cc1c(C=CCN2CCOCC2)[nH]c(=O)c2c1ccc1nc(Nc3c(Cl)cccc3Cl)n(C)c12,175 to 177 °C
24,N#CC1=C(Cl)CN(COC(=O)CNC(=O)CNC(=O)c2ccccc2)C1(c1ccc(Cl)cc1)C(F)(F)F (stereo not given),65 to 67 °C
25,O=C(CS(=O)(=O)c1ccccc1)c1ccc(F)nc1,127 to 128 °C

row,SMILES,melting point
1,COc1cccc2oc(C(=O)C34CC5CC(CC(C5)C3)C4)cc12,96 to 98 °C
2,CCOC(=O)CN1C(=O)CSC1=Nc1cc(-n2c(=O)cc(C(F)(F)F)n(C)c2=O)c(F)cc1Cl,67 to 87 °C
3,O=[N+]([O-])CS(=O)(=O)c1c[nH]c2ccccc12,181 to 182 °C
4,Cc1cc(C=Cc2ccccc2O)on1,236 to 238 °C
5,OCc1cccc2nnsc12,79 to 81 °C
6,CCCCCCCCCCCCCCCCc1ccc(S(=O)(=O)Nc2nncs2)cc1,118 to 119 °C
7,CN1C(=O)NCc2cccnc21,140 to 143 °C
8,CCOC(=O)C1=C(C)NN=C(C(=O)OC)C1c1ccccc1[N+](=O)[O-] (stereo not given),168 to 169 °C
9,Cc1ccc(Cc2cnc(NCCCNc3ccccn3)[nH]c2=O)cn1,163 to 165 °C
10,O=C(CC(Cc1cccc2ccccc12)C(=O)O)NCCc1ccccc1 (stereo not given),131 to 135 °C
11,Cc1n[nH]c(=O)n1N=Cc1cccnc1,208 to 210 °C
12,COc1ccc(CN(CCN(C)CCNC(=O)NCCSCc2csc(NC(=N)N)n2)c2ccccn2)cc1,84 °C
13,COc1cc2cc3c(nc2cc1OC)CCc1ccc(N)cc1-3,185 °C
14,O=C(Nc1ccc(O)cc1)c1cc(O)cc(O)c1,266 °C
15,CCc1nn(CCN)c(CO)c1Oc1cc(Cl)cc(Cl)c1,105 to 107 °C
16,COc1ccc(CN2C(=O)CN(Cc3cccc(I)c3)S2(=O)=O)cc1,98 to 100 °C
17,O=C1Cc2ccc(C3CCCCC3)cc2O1,80 to 81 °C
18,N#Cc1csc(N2C(=O)C(Cc3ccccc3)NC2=S)n1 (stereo not given),214 to 216 °C
19,CCOC(=O)C=C(C)NC(=O)Nc1cc(OC(C)C)c(Cl)cc1F,142 to 144 °C
20,C=CCOc1ccc2c(c1C=NO)OCO2,166 to 167 °C
21,O=C(CCC1CCN(Cc2ccccc2)CC1)c1cc2c3c(c1)CCN3C(=O)CC2,103 to 104 °C
22,COC(=O)c1[nH]c2c(C)ccc(C)c2c1[N+](=O)[O-],193 to 194 °C
23,O=C(Cc1cccs1)Nc1n[nH]c2cc(Cl)ccc12,210 °C
24,Cc1nnc(-c2ccc3occ(-c4ccc(SCc5ccccc5C#N)cc4)c3c2)o1,141 to 142 °C
25,CCCCCN1C(=O)C(CO)(c2cc3c(cc2O)OCO3)c2ccccc21 (stereo not given),125 to 127 °C

row,SMILES,melting point
1,COc1ccc(-c2c(Cl)c(CN3C(=O)CSC3=O)nc3sc4c(c23)CC[C@H](C(N)=O)C4)cc1,145 to 148 °C
2,COc1ccc(OC)c(CCNC(=O)N(C)O)c1,73 to 74 °C
3,Cc1cccc(C(=O)c2cc3c(ccc4ccccc43)oc2=O)c1,190 to 192 °C
4,COc1ccc(C)cc1NC(=O)Nc1ccc(N2CCN(C(=O)C3CCCCC3C)CC2)cc1 (stereo not given),208 to 209 °C
5,Cc1cc2nc3ccc(C(N)=O)cn3c(=O)c2s1,375 to 377 °C
6,C[Si](C)(CCCSCCCNC(=O)n1cc(F)c(=O)[nH]c1=O)c1ccccc1,51 to 52 °C
7,COC(=O)c1ccc(C(=O)NCc2cccc3ccccc23)s1,125 °C
8,O=C(O)C(O)=CC(=O)c1ccccc1,155 to 158 °C
9,CC1(C)C(=O)N([Si](C)(C)C)C(=O)N1[Si](C)(C)C,46 to 49 °C
10,COc1cc2c(cc1OC)C(=CC(N)=O)NCC2,156 to 158 °C
11,COc1cc(-c2csc(CN(C)C(=O)OC(C)(C)C)n2)cc(OC)c1OC(C)=O,135 to 137 °C
12,COc1ccc(C(=O)C2=C(c3ccccc3)c3ccccc3S2=O)cc1 (stereo not given),118 to 120 °C
13,Nc1cc(-n2cc(C(=O)O)c(=O)c3ccc(Cl)nc32)c(F)cc1F,> 270 °C
14,CC(C)(C)OC(=O)C[C@@H]1C[C@@H](COc2ccc(-c3ccc(C#N)c(Cl)c3)cc2)NC1=O,140 to 142 °C
15,CC(C)(C)CC(C)(C)NC(=O)c1cc(C(C)(C)C)c(OC(=O)c2cc(C(C)(C)C)c(O)c(C(C)(C)C)c2)c(C(C)(C)C)c1,213 to 215 °C
16,Cc1c(Nc2c(C#N)cnc3sc(-c4cccc(CN(C)C)c4)cc23)ccc2[nH]ccc12,227 to 229 °C
17,Cc1nn(Cc2ccccc2)c(C)c1CC(=O)O,119 to 121 °C
18,CCOC(C)(C)C(=O)O[C@H]1C[C@H](O)C=C2C=C[C@H](C)[C@H](CC[C@@H]3C[C@@H](O)CC(=O)O3)[C@H]21,132 °C
19,N#CNc1ccccc1-c1ccccc1F,68 to 69 °C
20,CS(=O)(=O)c1ccc(-n2cc(C(F)(F)F)nc2-c2ccc(-c3ccco3)cc2)cc1,82 to 84 °C
21,N#Cc1cc(Sc2ccc(Cl)c(Cl)c2)ccc1[N+](=O)[O-],136 to 138 °C
22,CCS(=O)c1cccnc1S(=O)(=O)NC(C)(C)C (stereo not given),129 to 131 °C
23,CN1CCCC1=NC(=O)Nc1cc(Cl)cc(Cl)c1,157 to 159 °C
24,O=C(Cc1cccc2ccccc12)Nc1cc([C@H]2C[C@@H](NC(=O)c3cccc([N+](=O)[O-])c3)C2)[nH]n1,124 °C
25,N=C(NO)C1C=Cc2ccccc2N1C(=O)c1ccccc1 (stereo not given),176 to 178 °C

row,SMILES,melting point
1,CCCc1c(C(=O)C(C)C)c2ccc(CC(=O)OC)cc2n1Cc1cc2c(cc1Cl)OCO2,119 to 120 °C
2,CCCOc1cc([N+](=O)[O-])cc2cc(C(=O)OC)oc12,157 °C
3,COC(=O)c1cccc([N+](=O)[O-])c1I,64 to 64.5 °C
4,CCCCOC(=O)N[C@H]1C(=O)N[C@H]1CO (relative stereo),128 to 131 °C
5,CONc1nc(-c2ccccc2)c2cc(Cl)ccc2n1,174 °C
6,CCOCCn1cccc1-c1nc(-c2ccc(OC)cc2)c(-c2ccc(OC)cc2)s1,68 to 71 °C
7,Cc1cc(-n2ccnc2)c2cccc(OCc3c(Cl)ccc(S(=O)(=O)N4CCC[C@H]4C(=O)NCCCNC(=O)c4ccc(C#N)cc4)c3Cl)c2n1,118 °C
8,CCCCCCCCOc1ccc(-c2ccc(OCC(C)OC(=O)C(C)CC)cc2)cc1 (stereo not given),56 °C
9,CCn1c(=O)ccc2cnc(Nc3ccc(-c4ccccc4)cc3)nc21,207 to 208 °C
10,CC(NS(=O)(=O)c1ccc([N+](=O)[O-])cc1[N+](=O)[O-])c1ccccc1 (stereo not given),160 to 161 °C
11,O=C(NCCc1cccs1)C1CC2C=CC1C2 (stereo not given),71 to 72 °C
12,CC(C)(C)OC(=O)CCc1ccnc(-c2nc(=O)c3ccccc3s2)c1,136 to 137 °C
13,COc1cc2[nH]c(=O)c3ccccc3c2cc1OC,253 to 255 °C
14,C=CCOC(=O)Nc1c(C#N)cnn1-c1ccc(Cl)c(Cl)c1Cl,154 to 155 °C
15,COC1(c2nc3ccc(F)cc3s2)C=CC(=NS(=O)(=O)c2ccc(C)cc2)C=C1 (stereo not given),135 °C
16,CCOC(=O)c1nnc2ccc(-c3ccco3)cc2c1O,198 to 200 °C
17,CCCOc1cc(CCCOc2c(CC(=O)O)cccc2OC)n(Cc2ccccc2OC)n1,79 to 82 °C
18,Oc1cc(O)c(C23CC4CC(CC(C4)C2)C3)cc1C12CC3CC(CC(C3)C1)C2,146 °C
19,Cc1c(O)cc(O)cc1C(=O)OCc1ccc([N+](=O)[O-])cc1,160 to 163 °C
20,COC1(C)CCc2cc(O)c(C(C)(C)C)cc2O1 (stereo not given),115 to 117 °C
21,CC(C)(C)OC(=O)Nc1c(C#N)cnn1-c1ccc(Cl)c(Cl)c1Cl,140 to 141 °C
22,CC=CC(=O)c1c(CCC)[nH]c2cc(C(=O)OC)ccc12,153 to 154 °C
23,O=C(O)COc1cccc2c1OCc1sc(SC(c3ccccc3)c3ccccc3)nc1-2,129 to 131 °C
24,CCn1ncc2c3noc(-c4cccc(Cl)c4)c3cnc21,207 to 209 °C
25,CCOC(=O)C(=O)Nc1ncc(C)s1,166 to 168 °C
